Legend:
[1] = system: human breast MDA468 tumor cell line; test: In vitro cell culture growth assay (MTS), MDA468; assay type: cell-based; details: 72 h, three days after drug treatment
Experimental: (§1) Cell Lines used are human prostate LNCap and human breast MDA468 tumor cell lines. Cells are plated in 96-well culture plates at approximately 3000 cells per well. […] Three days after drug treatment, viable cell densities are determined by cell mediated metabolic conversion of the dye MTS, a well-established indicator of cell proliferation in vitro. Cell growth assays are performed using kits purchased from Promega Corporation (Madison, Wis.), following the protocol provided by the vendor. Measuring absorbance at 490 nm generates MTS assay results. Compound effect on cell proliferation is assessed relative to untreated control cell growth.

human SMG-1 (hSMG-1) = human SMG-1 (hSMG-1) (Homo sapiens, UniProt Q96Q15); test: hSMG-1 kinase assay (DELFIA); assay type: biochemical; details: read-out: hSMG1 IC50
Chain of human SMG-1 (hSMG-1) (Q96Q15 whole entry): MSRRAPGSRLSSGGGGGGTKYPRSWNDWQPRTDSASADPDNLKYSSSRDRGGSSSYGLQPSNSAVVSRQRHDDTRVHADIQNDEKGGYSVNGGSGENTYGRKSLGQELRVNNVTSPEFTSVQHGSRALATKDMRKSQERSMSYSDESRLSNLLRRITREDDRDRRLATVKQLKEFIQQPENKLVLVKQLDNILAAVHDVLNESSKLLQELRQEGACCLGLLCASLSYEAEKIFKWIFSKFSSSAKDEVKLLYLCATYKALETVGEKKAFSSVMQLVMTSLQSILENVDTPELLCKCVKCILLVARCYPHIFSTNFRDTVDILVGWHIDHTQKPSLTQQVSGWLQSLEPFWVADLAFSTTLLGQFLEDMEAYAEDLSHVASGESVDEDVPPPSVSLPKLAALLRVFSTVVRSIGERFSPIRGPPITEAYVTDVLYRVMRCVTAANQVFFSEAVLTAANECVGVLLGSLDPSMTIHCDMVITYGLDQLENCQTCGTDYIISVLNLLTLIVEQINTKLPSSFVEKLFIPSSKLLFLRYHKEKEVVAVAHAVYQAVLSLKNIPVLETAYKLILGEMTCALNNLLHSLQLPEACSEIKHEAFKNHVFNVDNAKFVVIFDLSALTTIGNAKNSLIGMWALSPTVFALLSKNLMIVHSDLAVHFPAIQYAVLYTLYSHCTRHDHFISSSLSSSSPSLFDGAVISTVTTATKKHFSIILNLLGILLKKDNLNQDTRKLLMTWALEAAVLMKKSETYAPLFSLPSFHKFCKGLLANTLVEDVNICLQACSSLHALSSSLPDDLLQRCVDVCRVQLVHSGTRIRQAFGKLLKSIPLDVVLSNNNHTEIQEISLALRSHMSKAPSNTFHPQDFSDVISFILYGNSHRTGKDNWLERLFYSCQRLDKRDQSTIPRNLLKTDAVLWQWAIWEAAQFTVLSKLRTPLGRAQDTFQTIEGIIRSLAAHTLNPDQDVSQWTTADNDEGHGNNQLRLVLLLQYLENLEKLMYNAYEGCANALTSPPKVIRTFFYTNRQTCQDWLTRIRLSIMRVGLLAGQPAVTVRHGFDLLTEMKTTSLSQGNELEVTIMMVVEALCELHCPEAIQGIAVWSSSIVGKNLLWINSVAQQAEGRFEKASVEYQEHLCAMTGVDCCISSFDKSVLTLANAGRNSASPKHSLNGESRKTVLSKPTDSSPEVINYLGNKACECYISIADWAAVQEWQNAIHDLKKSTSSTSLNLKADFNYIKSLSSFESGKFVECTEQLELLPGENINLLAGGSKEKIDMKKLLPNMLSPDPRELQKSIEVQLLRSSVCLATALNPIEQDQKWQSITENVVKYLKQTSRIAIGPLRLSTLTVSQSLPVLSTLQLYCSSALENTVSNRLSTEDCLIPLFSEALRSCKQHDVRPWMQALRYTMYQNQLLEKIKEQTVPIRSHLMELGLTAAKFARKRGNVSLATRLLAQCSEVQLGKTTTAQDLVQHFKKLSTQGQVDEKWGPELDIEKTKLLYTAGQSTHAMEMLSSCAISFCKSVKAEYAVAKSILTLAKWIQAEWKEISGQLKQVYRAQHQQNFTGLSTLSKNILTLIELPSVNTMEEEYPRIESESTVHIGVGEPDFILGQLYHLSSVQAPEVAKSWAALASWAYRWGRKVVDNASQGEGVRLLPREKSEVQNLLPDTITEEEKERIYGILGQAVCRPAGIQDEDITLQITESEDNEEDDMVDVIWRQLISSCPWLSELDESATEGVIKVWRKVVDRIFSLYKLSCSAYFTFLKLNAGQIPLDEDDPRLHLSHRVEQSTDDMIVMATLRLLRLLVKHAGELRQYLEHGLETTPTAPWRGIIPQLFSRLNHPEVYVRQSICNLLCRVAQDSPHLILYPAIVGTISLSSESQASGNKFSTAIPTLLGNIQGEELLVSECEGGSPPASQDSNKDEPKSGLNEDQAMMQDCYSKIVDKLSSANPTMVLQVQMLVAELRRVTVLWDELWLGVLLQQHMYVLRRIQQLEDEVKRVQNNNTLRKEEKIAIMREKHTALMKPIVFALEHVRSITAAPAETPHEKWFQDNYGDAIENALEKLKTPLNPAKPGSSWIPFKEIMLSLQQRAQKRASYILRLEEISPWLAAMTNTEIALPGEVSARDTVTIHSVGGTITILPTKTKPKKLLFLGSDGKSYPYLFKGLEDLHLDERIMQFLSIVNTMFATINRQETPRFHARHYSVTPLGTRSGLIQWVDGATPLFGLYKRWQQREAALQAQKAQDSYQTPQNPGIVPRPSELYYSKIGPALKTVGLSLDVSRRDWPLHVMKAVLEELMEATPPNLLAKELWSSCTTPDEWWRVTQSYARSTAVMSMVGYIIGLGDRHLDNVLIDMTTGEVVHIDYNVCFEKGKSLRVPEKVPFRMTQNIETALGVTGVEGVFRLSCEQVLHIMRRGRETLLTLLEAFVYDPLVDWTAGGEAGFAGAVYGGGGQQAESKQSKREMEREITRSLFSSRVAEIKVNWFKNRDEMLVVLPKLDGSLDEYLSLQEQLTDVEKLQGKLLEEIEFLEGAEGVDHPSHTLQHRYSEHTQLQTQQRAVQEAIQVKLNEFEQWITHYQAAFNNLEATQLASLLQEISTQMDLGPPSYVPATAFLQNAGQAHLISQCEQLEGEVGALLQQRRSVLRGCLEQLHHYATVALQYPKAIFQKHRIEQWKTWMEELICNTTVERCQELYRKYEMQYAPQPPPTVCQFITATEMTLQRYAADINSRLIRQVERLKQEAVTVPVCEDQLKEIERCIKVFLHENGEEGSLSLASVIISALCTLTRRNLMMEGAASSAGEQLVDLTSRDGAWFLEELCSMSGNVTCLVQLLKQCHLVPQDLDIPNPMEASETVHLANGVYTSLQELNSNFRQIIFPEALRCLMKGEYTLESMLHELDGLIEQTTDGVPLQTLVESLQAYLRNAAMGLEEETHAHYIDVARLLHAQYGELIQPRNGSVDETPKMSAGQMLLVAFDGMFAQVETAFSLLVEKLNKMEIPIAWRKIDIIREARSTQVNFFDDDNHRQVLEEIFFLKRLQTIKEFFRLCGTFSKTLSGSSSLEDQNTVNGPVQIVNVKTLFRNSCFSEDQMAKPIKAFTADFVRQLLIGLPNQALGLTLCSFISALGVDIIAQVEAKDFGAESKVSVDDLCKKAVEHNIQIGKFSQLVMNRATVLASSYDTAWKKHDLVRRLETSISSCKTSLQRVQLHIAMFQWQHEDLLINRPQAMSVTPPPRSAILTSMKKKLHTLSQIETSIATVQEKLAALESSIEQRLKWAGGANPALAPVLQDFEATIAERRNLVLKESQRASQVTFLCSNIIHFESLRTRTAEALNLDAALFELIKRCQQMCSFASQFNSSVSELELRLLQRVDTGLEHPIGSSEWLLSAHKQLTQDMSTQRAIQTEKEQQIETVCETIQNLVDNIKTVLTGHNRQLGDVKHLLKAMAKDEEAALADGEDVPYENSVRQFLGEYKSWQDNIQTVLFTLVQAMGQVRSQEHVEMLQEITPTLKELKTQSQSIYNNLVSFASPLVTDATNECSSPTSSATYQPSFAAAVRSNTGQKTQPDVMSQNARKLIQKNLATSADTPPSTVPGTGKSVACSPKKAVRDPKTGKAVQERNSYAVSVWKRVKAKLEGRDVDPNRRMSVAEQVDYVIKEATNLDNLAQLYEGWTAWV

[2] = system: human prostate LNCap tumor cell line; test: In vitro cell culture growth assay (MTS), LNCap; assay type: cell-based; details: 72 h, three days after drug treatment
Experimental: as §1

PI3K-alpha = PI3K-alpha (Homo sapiens, UniProt P42336); test: PI3K-alpha fluorescence polarization assay; assay type: biochemical; details: read-out: PI3 Kinase α IC50
Outline: (§2)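 Diluted enzyme and compound (1% DMSO) reacted with diC8 PIP2 and ATP substrate in 20 mM HEPES pH 7.5, 2 mM MgCl2, 0.05% CHAPS for 30–60 min. Stopped with EDTA buffer holding 10 nM TAMRA probe and 70 nM GST-GRP. FP (mP) read after 30–90 min against zero-time and no-enzyme controls.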

PI3K-gamma = PI3K-gamma (Homo sapiens, UniProt P48736); test: PI3K-gamma fluorescence polarization assay; assay type: biochemical; details: read-out: PI3 Kinase γ IC50
Chain of PI3K-gamma (P48736 whole entry, species assumed): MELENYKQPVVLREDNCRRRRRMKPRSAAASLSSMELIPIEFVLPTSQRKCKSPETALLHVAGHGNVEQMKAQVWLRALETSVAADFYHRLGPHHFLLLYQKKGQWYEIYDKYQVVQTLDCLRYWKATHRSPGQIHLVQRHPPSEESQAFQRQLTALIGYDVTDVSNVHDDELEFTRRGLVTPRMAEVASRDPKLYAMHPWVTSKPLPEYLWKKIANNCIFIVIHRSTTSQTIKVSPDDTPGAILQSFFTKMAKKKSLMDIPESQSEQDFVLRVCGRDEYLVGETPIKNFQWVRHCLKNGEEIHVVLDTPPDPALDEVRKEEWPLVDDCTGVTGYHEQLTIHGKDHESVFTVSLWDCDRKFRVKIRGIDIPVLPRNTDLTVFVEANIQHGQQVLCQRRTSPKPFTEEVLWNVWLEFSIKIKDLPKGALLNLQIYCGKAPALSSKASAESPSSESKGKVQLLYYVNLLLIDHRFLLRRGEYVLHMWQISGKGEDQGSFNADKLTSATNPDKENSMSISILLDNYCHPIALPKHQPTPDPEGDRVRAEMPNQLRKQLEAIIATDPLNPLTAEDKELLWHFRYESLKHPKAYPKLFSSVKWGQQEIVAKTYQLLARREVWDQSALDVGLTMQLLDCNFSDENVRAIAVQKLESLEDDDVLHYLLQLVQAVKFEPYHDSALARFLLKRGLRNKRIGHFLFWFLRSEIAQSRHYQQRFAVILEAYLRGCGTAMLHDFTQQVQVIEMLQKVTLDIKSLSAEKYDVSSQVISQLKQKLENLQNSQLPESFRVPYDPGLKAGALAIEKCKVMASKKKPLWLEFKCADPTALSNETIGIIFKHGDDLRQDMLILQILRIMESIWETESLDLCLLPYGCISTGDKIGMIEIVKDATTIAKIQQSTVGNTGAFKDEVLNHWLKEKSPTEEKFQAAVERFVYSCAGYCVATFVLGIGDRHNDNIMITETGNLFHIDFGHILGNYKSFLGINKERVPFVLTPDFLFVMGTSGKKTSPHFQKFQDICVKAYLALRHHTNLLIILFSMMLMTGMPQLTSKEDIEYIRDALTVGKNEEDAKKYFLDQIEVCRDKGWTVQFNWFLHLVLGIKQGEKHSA
Outline: as §2

Human mTOR = Human mTOR (Homo sapiens, UniProt P42345); test: mTOR kinase assay (DELFIA format, purified enzyme); assay type: biochemical; design: FLAG; details: read-out: TOR Kinase IC50

| SMILES | IC50 [1] [nM] | IC50 (human SMG-1 (hSMG-1)) [nM] | IC50 [2] [nM] | IC50 (PI3K-alpha) [nM] | IC50 (PI3K-gamma) [nM] | IC50 (Human mTOR) [nM] |
| --- | --- | --- | --- | --- | --- | --- |
| CCNC(=O)Nc1cccc(-c2nc(N3CCOCC3)c3ccc4c(ccn4C)c3n2)c1 [Example 128, 1-ethyl-3-[3-(7-methyl-4-morpholin-4-yl-7H-pyrrolo[2,3-h]quinazolin-2-yl)phenyl]urea] | – | > 20000 | – | – | – | 1800 |
| CN(C)CCn1ccc2c3nc(-c4ccc(NC(=O)C5CC5)cc4)nc(N4CCOCC4)c3ccc21 [Example 96, N-(4-{7-[2-(dimethylamino)ethyl]-4-morpholin-4-yl-7H-pyrrolo[2,3-h]quinazolin-2-yl}phenyl)cyclopropanecarboxamide] | – | > 20000 | – | – | – | 5250 |
| COCCNC(=O)Nc1ccc(-c2nc(N3CCOCC3)c3ccc4c(ccn4C)c3n2)cc1 [Example 101, 1-(2-methoxyethyl)-3-[4-(7-methyl-4-morpholin-4-yl-7H-pyrrolo[2,3-h]quinazolin-2-yl)phenyl]urea] | – | > 20000 | – | – | – | 1800 |
| Cn1ccc2c3nc(-c4ccc(NC(=O)NC5CCS(=O)(=O)C5)cc4)nc(N4CCOCC4)c3ccc21 (stereo not shown) [Example 117, 1-(1,1-dioxidotetrahydrothiophen-3-yl)-3-[4-(7-methyl-4-morpholin-4-yl-7H-pyrrolo[2,3-h]quinazolin-2-yl)phenyl]urea] | – | > 20000 | – | – | – | 600 |
| CC(C)NC(=O)Nc1ccc(-c2nc(N3CCOCC3)c3ccc4c(ccn4C)c3n2)cc1 [Example 99, 1-(1-methylethyl)-3-[4-(7-methyl-4-morpholin-4-yl-7H-pyrrolo[2,3-h]quinazolin-2-yl)phenyl]urea] | – | 14500 | – | – | – | 215 |
| Cn1ccc2c3nc(-c4ccc(NC(=O)NC5CCCC5)cc4)nc(N4CCOCC4)c3ccc21 [Example 105, 1-cyclopentyl-3-[4-(7-methyl-4-morpholin-4-yl-7H-pyrrolo[2,3-h]quinazolin-2-yl)phenyl]urea] | – | > 20000 | – | – | – | 2050 |

Compounds with a lower IC50 (human SMG-1 (hSMG-1)), results first:

| IC50 [1] [nM] | IC50 (human SMG-1 (hSMG-1)) [nM] | IC50 [2] [nM] | IC50 (PI3K-alpha) [nM] | IC50 (PI3K-gamma) [nM] | IC50 (Human mTOR) [nM] | SMILES |
| --- | --- | --- | --- | --- | --- | --- |
| 1900 | 200 | 690 | – | – | – | CCNC(=O)Nc1ccc(-c2nc(N3CCOCC3)c3ccc4c(ccn4S(C)(=O)=O)c3n2)cc1 [Example 89, 1-ethyl-3-{4-[7-(methylsulfonyl)-4-morpholin-4-yl-7H-pyrrolo[2,3-h]quinazolin-2-yl]phenyl}urea] |
| – | 290 | – | 118 | 860 | 15 | CN(C)CCn1ccc2c3nc(-c4ccc(NC(=O)Nc5cccnc5)cc4)nc(N4CCOCC4)c3ccc21 [Example 111, 1-(4-{7-[2-(dimethylamino)ethyl]-4-morpholin-4-yl-7H-pyrrolo[2,3-h]quinazolin-2-yl}phenyl)-3-pyridin-3-ylurea] |
| 30000 | 140 | 2000 | – | – | 26 | CCCNC(=O)Nc1ccc(-c2nc(N3CCOCC3)c3ccc4c(ccn4S(C)(=O)=O)c3n2)cc1 [Example 121, 1-{4-[7-(methylsulfonyl)-4-morpholin-4-yl-7H-pyrrolo[2,3-h]quinazolin-2-yl]phenyl}-3-propylurea] |
| – | 490 | – | 427 | 3090 | 67 | CNC(=O)Nc1ccc(-c2nc(N3CCOCC3)c3ccc4c(ccn4CCN(C)C)c3n2)cc1 [Example 113, 1-(4-{7-[2-(dimethylamino)ethyl]-4-morpholin-4-yl-7H-pyrrolo[2,3-h]quinazolin-2-yl}phenyl)-3-methylurea] |
| – | 1800 | – | – | – | 50 | CN(C)CCn1ccc2c3nc(-c4ccc(NC(=O)Nc5ccccc5)cc4)nc(N4CCOCC4)c3ccc21 [Example 95, 1-(4-{7-[2-(dimethylamino)ethyl]-4-morpholin-4-yl-7H-pyrrolo[2,3-h]quinazolin-2-yl}phenyl)-3-phenylurea] |
| – | 3300 | – | – | – | 625 | Cn1ccc2c3nc(-c4ccc(NC(=O)NCCc5ccncc5)cc4)nc(N4CCOCC4)c3ccc21 [Example 120, 1-[4-(7-methyl-4-morpholin-4-yl-7H-pyrrolo[2,3-h]quinazolin-2-yl)phenyl]-3-(2-pyridin-4-ylethyl)urea] |
